Eleven molecules from ChEMBL document CHEMBL1201862, “PubChem BioAssay data set” (2004) can be followed below.

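Grown in 96-well plates, cells were treated for 48 hours with each compound at five concentrations. Insufficient inhibition: endpoint recorded as highest concentration tested. Abbreviation: GI50, concentration required for 50% inhibition of growth.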 Active and inactive are the calls of the source. No stated cut-off is given here; in the data, active = GI50 up to about 1.1 µM and inactive = higher.

Holding throughout (test): NCI-60 cell line screen, 48 h
In assay [1] the test system is 786-0.
Assay [2] deals with A549.
For assay [3], the system named is CAKI-1.
For assay [4], the system named is DU-145.
Assay [5] deals with HCT-116.
Assay [6] has as its system HOP-62.
In assay [7] the test system is HOP-92.
For assay [8], the system named is M14.
Assay [9] has as its system MCF7.
Assay [10] concerns MDA-N.
For assay [11], the system named is NCI-H460.
Assay [12] relates to SF-268.
Assay [13] has as its system SF-295.
For assay [14], the system named is SK-MEL-2.
Assay [15] has as its system SK-MEL-5.
The test system of assay [16] is SK-OV-3.
Assay [17] concerns SN12C.
In assay [18] the test system is SR.
The subject of assay [19] is UO-31.
Assay [20] has as its system T47D.

Turning to `Cc1cc(C)n2nc3nc(N)c(C#N)c(-c4ccccc4)c3c2n1`, the GI50 in assay [1], in [2], in assay [3], in [4], in assay [5] and in assay [6] was > 100 µM (inactive) in each case. In addition, the GI50 in assay [7], in [8], in assay [9], in assay [10], in assay [11] and in assay [12] was > 100 µM (inactive) each time. The GI50 in assay [13] was > 100 µM (inactive); in assay [14] it was > 100 µM (inactive); in assay [15], > 80.2 µM (inactive); in assay [16] it was > 100 µM (inactive); in [17], > 100 µM (inactive); in assay [18] it was > 100 µM (inactive). Besides, the GI50 in [19] was > 100 µM (inactive).

For `O=c1cc(/N=N/c2ccc(O)cc2)[nH]c(=O)[nH]1`, the GI50 is 39.8 µM (inactive) in [1]; > 100 µM (inactive) in assay [2]; > 100 µM (inactive) in assay [3]; > 100 µM (inactive) in [4]; > 100 µM (inactive) in assay [5]; 62.8 µM (inactive) in [6]. For the same molecule, the GI50 in assay [7] was 96.6 µM (inactive); in [8] it was > 100 µM (inactive); in assay [9], > 100 µM (inactive); in assay [10], > 100 µM (inactive); in [11] it was > 100 µM (inactive); in [12], 40.5 µM (inactive). Further, the GI50 in [13] was > 100 µM (inactive); in assay [14], > 100 µM (inactive); in [15], > 100 µM (inactive); in assay [16], > 100 µM (inactive); in assay [17] it was 66.7 µM (inactive); in [18] it was > 100 µM (inactive). Besides, in assay [19], the GI50 is > 100 µM (inactive).

As to `CCc1n[nH]c(=O)n1/N=C(\C)c1ccc([N+](=O)[O-])cc1`, the GI50 was > 100 µM (inactive) in [1]; 86.7 µM (inactive) in [2]; > 100 µM (inactive) in assay [3]; 27.5 µM (inactive) in assay [4]; > 100 µM (inactive) in assay [5]; > 100 µM (inactive) in [6]. Moreover, the GI50 in [7] was > 100 µM (inactive); in assay [8], > 100 µM (inactive); in [9] it was 30.2 µM (inactive); in assay [10], > 100 µM (inactive); in assay [11], 46.2 µM (inactive); in assay [12], 26.3 µM (inactive). The GI50 is > 100 µM (inactive) in assay [13]; > 100 µM (inactive) in [14]; > 100 µM (inactive) in assay [15]; 54.7 µM (inactive) in assay [17]; > 100 µM (inactive) in assay [20]; > 100 µM (inactive) in assay [19].

For `COC(=O)C([C@H]1CC[C@H](OCc2ccccc2)[C@@]1(O)COCc1ccccc1)C(C)(O)CCc1ccccc1` (stereo partly specified), the GI50 in [1] was 12.9 µM (inactive); in [2], 6.71 µM (inactive); in [3], 57.9 µM (inactive); in assay [4], 24.2 µM (inactive); in [5], 10.7 µM (inactive); in assay [6], 15.2 µM (inactive). Moreover, the GI50 in assay [8] is 10.6 µM (inactive); in [9], 10.1 µM (inactive); in assay [10] it was 13.1 µM (inactive); in assay [12] it was 4.01 µM (inactive); in assay [13], 8.41 µM (inactive); in [14] it was 12.2 µM (inactive). In addition, the GI50 in assay [15] was 14.1 µM (inactive); in assay [16], 27.1 µM (inactive); in [17], 5.13 µM (inactive); in assay [18] it was 5.43 µM (inactive); in assay [19], 10.7 µM (inactive).

Consider `CC(C)(C)c1cc(C(=O)/C=C/c2cc[nH]n2)cc(C(C)(C)C)c1O`, for which the GI50 in [1] was 1.58 µM (inactive); in [2] it was 3.02 µM (inactive); in [3] it was 2.48 µM (inactive); in assay [4], 2.56 µM (inactive); in assay [5], 2.43 µM (inactive); in assay [6], 2.86 µM (inactive). Moreover, the GI50 in assay [7] was 2.21 µM (inactive); in [8], 1.82 µM (inactive); in assay [9], 1.36 µM (inactive); in assay [11], 3.72 µM (inactive); in assay [12] it was 2.4 µM (inactive); in assay [13], 13.7 µM (inactive). The GI50 in assay [14] is 1.78 µM (inactive); in assay [15], 7.52 µM (inactive); in assay [16], 15.7 µM (inactive); in assay [17], 1.85 µM (inactive); in assay [18] it was 1.19 µM (inactive); in [20] it was 1.11 µM (active). The GI50 in assay [19] is 1.76 µM (inactive).

For `CCn1c2ccccc2n2c(=O)c3c(c(C#N)c12)CCCC3`, the GI50 in assay [1], in [2], in assay [3], in [4], in [5] and in assay [7] was > 100 µM (inactive) in each case. For the same molecule, the GI50 in [8], in assay [9], in assay [10], in assay [11], in [12] and in [13] was > 100 µM (inactive) each time. In addition, the GI50 in [14] was > 100 µM (inactive); in assay [15], > 100 µM (inactive); in [16], > 100 µM (inactive); in [17], > 100 µM (inactive); in assay [20] it was > 100 µM (inactive); in assay [19], 93.5 µM (inactive).

Regarding `CCOC(=O)N1c2c(c3ccccc3n2C(=O)OCC)C(=O)C(OC)N1C(=O)OCC` (stereo unspecified), the GI50 in [1] is 43.2 µM (inactive); in assay [2] it was 32.7 µM (inactive); in [3], 28.8 µM (inactive); in assay [4] it was 61.9 µM (inactive); in [5], 26.5 µM (inactive); in [6] it was 22 µM (inactive). The GI50 is 31.3 µM (inactive) in [7]; 38.4 µM (inactive) in assay [8]; 34.3 µM (inactive) in assay [9]; 33.2 µM (inactive) in [10]; 36.1 µM (inactive) in assay [11]; 19.6 µM (inactive) in assay [13]. In addition, the GI50 in assay [14] is 16 µM (inactive); in assay [15], 21.8 µM (inactive); in assay [16], 28.4 µM (inactive); in assay [17], 28.8 µM (inactive); in assay [18], 16.9 µM (inactive); in assay [19], 33.7 µM (inactive).

Regarding `COc1ccc(CC2C3=C(CCCC3)CCN2C)cc1` (stereo unspecified), the GI50 in assay [1] was > 100 µM (inactive); in [2], > 100 µM (inactive); in assay [3], > 100 µM (inactive); in [4], > 100 µM (inactive); in assay [5], 58.2 µM (inactive); in assay [6] it was > 100 µM (inactive). Moreover, the GI50 is 44.4 µM (inactive) in assay [8]; > 100 µM (inactive) in [9]; > 100 µM (inactive) in [10]; > 100 µM (inactive) in [11]; 43.1 µM (inactive) in assay [12]; > 100 µM (inactive) in [13]. The GI50 in [14] is > 100 µM (inactive); in [15], > 100 µM (inactive); in assay [16] it was > 100 µM (inactive); in [17] it was > 100 µM (inactive); in assay [20], 69.2 µM (inactive); in assay [19] it was 58.3 µM (inactive).

Consider `CC(=O)O[C@H]1CC[C@@]2(C)C(=CC[C@@H]3[C@@H]2CC[C@]2(C)C(=N/O)/C(=C/c4ccc([N+](=O)[O-])cc4)C[C@@H]32)C1`, for which the GI50 in assay [1] is 4.89 µM (inactive); in [2] it was 4.55 µM (inactive); in [3], 1.39 µM (inactive); in assay [4] it was 5.26 µM (inactive); in [5] it was 3.97 µM (inactive); in [6] it was 17.3 µM (inactive). Further, the GI50 in assay [7] is 11.9 µM (inactive); in assay [8], 4.09 µM (inactive); in assay [10] it was 3.37 µM (inactive); in [11] it was > 100 µM (inactive); in assay [12], 3.66 µM (inactive); in assay [13], 3.74 µM (inactive). For the same molecule, the GI50 in assay [14] was 3.53 µM (inactive); in assay [15], 1.69 µM (inactive); in assay [16] it was 11.9 µM (inactive); in assay [17], 5.5 µM (inactive); in assay [20], 0.338 µM (active); in assay [19], 4.44 µM (inactive).

As for `COCN1C(=O)[C@@H]2CCCN2C(=O)c2ccc([N+](=O)[O-])cc21`, the GI50 in assay [1], in [2], in assay [3], in assay [4], in assay [5] and in [6] was > 100 µM (inactive) each time. Besides, the GI50 in assay [7], in assay [8], in assay [9], in assay [11], in assay [12] and in assay [13] was > 100 µM (inactive) each time. For the same molecule, the GI50 is > 100 µM (inactive) in [14]; > 100 µM (inactive) in assay [15]; > 100 µM (inactive) in assay [16]; > 100 µM (inactive) in assay [17]; 48.4 µM (inactive) in assay [18]; > 100 µM (inactive) in [20]. Besides, in assay [19], the GI50 was > 100 µM (inactive).

`CC(C)(C)C1CCC2c3c([nH]c4ccccc34)C3C(=O)N(c4ccccc4Cl)C(=O)C3C2C1` (stereo unspecified): the GI50 in assay [1] was 10.3 µM (inactive); in assay [2], 9.2 µM (inactive); in assay [3], 9.12 µM (inactive); in assay [4], 15.1 µM (inactive); in assay [5], 3.18 µM (inactive); in assay [6], 14.5 µM (inactive). Also, the GI50 in assay [7] is 0.15 µM (active); in [8], 17.1 µM (inactive); in assay [10] it was 12.1 µM (inactive); in assay [11], 3.48 µM (inactive); in assay [12] it was 14.4 µM (inactive); in assay [13] it was 19.7 µM (inactive). Also, the GI50 was 17.5 µM (inactive) in [14]; 14.1 µM (inactive) in [15]; 22.8 µM (inactive) in assay [16]; 10.6 µM (inactive) in assay [17]; 13.4 µM (inactive) in assay [18]; 14.5 µM (inactive) in [19].
